Test results taken from ChEMBL document CHEMBL2010733, “Amphilectane diterpenes from Salvia sclarea: biosynthetic considerations” (J Nat Prod, 2012).
The source made the active and inactive calls. No cut-off for these calls is given here.

Test system: Radical scavenging activity
Experiment: Antioxidant activity assessed as DPPH radical scavenging activity
Type: functional

Structure (SMILES) | Activity
CC(C)=C[C@H]1C=C(C)[C@@H]2CC[C@H](C)[C@@]23CCC(C)=C[C@@H]13 (relative stereo) | inactive
CC(C)=C[C@H]1C=C(C)[C@H]2CC[C@H](C)[C@@H]3CC=C(C)[C@@H]1[C@@H]32 (relative stereo) | inactive
